# From article PMC3266270, “Biochemical Discrimination between Selenium and Sulfur 1: A Single Residue Provides Selenium Specificity to Human Selenocysteine Lyase” (PLoS ONE, 2012)
# T1: hSCL (human selenocysteine lyase) (Homo sapiens, UniProt Q96I15)
# T1 construct: gene SCLY; residues 8-445, N-terminal His6-TEV tag cleaved before assay and crystallization; E. coli BL21(DE3); homodimer
# T1 sequence (Q96I15 8-445): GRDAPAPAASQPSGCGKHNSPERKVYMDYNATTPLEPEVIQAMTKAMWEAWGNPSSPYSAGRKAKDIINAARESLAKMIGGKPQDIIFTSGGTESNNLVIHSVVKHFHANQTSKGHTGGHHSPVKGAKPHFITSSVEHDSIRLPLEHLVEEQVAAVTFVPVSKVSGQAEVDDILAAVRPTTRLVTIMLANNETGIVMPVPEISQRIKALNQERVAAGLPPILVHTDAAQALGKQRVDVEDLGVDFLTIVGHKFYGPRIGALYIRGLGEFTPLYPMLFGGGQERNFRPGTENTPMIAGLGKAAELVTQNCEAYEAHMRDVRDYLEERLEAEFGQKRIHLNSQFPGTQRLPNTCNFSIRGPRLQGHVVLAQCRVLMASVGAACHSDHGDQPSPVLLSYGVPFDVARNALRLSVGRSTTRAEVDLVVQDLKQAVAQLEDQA
# B1: human selenocysteine lyase (hSCL), residues 8-445 (enzyme, UniProt Q96I15 8-445, looked up)
# chain: T1 sequence (Q96I15 8-445)
# notes: human selenocysteine lyase (hSCL), residues 8-445, cDNA clone from the Mammalian Gene Collection (GenBank BC007891.2), cloned in pNIC-Bsa4; residues 120-132 are disordered; A few vector residues probably remain at the N-terminus after TEV cleavage (surmised; also called human SCL; Sec lyase; source: His-tag removed with TEV protease); not shown: His6, N-terminal, cleaved
# How the values were obtained:
# [1] = target: T1, hSCL (human selenocysteine lyase); assay: X-ray crystal structure; assay type: binding; conditions: P2_12_12_1 crystal, 2.1 Å; pH 6.7; copurified cofactor; active site at homodimer interface
# [2] = target: T1, hSCL (human selenocysteine lyase); assay: alanine dehydrogenase-coupled detection of product alanine; assay type: biochemical; conditions: 5 mM seleno-L-cystine reduced in situ by 50 mM DTT (10 mM Sec equivalent), 0.2 mM PLP, pH 8.5, 37 °C, under nitrogen; time course only
# [3] = target: the molecule itself; assay: crystal structure; hSCL with PLP, His-tag cleaved; two crystal forms: P2(1)2(1)2(1), 2.1 A, 100 mM HEPES pH 6.7, 10% PEG6000, one dimer per asymmetric unit; P1, 1.8 A, 50 mM HEPES pH 8.1, 200 mM ammonium nitrate, 25% PEG3350, soaked with 10 mM L-cysteine for 2 h, two dimers per asymmetric unit; crystals grown at 20 C
molecule,measurement,setting,value
Cc1ncc(COP(=O)(O)O)c(C=O)c1O [PLP],X-ray crystal structure,[1],Human SCL homodimer in complex with the co-factor PLP.
N[C@@H](C[SeH])C(=O)O [Sec],alanine dehydrogenase-coupled detection of product alanine,[2],The activity with Sec observed in the wild-type enzyme was not altered
B1,stoichiometry N,[3],2
